Values after ≈ are worked out from the molar mass of the structure shown. Where a name gives a salt, the structure may show the parent alone. Read-outs that look alike come from different tables or passages of the source.
Legend:
[1] = test system: Nippostrongylus brasiliensis; assay: Test 1: activity against roundworms in rats, treatment 6 days after infection (patent infection), worm counts 48 hours after treatment; assay type: in vivo; settings: Nippostrongylus brasiliensis, po, 48 h, Test 1, 1000 mg/kg oral, read-out: Percentage reduction in N.brasiliensis load
Description: Test 1 - Rats were infected with 100 Nippostrongylus brasiliensis larvae each, by the subcutaneous route. After 6 days, when the infection was patent, the rats were randomised and alloted to groups of 10 animals each, ready for treatment. One group was used for each dose level of the test compound and, in each experiment, one group was left untreated as a control. All the rats were killed for post-mortem worm counts 48 hours after treatment. The activity, expressed in terms of the percentage reduction in mean worm load of the treated group compared with the untreated group, is shown in Table I.

[2] = test system: Nippostrongylus brasiliensis; assay: Test 2: activity against roundworms in rats, treatment 24 hours after infection, worm counts 6 days after dosing; assay type: in vivo; settings: rats; for inhibition in vivo at 1000 mg/kg / inhibition in vivo at 250 mg/kg: Nippostrongylus brasiliensis, 144 h, read-out: Percentage reduction in N.brasiliensis load; for inhibition in vivo at 1000 mg/kg / worm damage: Test 2, 1000 mg/kg oral
Description: Test 2 -- Rats were infected with 100 Nippostrongylus brasiliensis larvae each, by the subcutaneous route. After 24 hours the rats were randomised and allotted to groups of 5 animals each, ready for treatment. Doses of the test compound were then administered to each group by the oral, subcutaneous and intraperitoneal routes respectively, one group of 10 animals being left untreated as a control. All the rats were killed for post-mortem worm counts 6 days after dosing. The activities, expressed in terms of the percentage reductions in mean worm load of the treated groups or damage to the worms compared with the untreated control group, are given below in Table I.

[3] = test system: Nippostrongylus brasiliensis eggs; assay: In vitro activity against roundworms (egg hatching and larvae); assay type: cell-based; settings: 96 h, tested at 100, 10, 1 and 0.1 μg/ml, inhibited or delayed hatching of eggs, or killed, retarded growth or reduced activity of larvae during 4 days, read-out: M.I.C. (minimum inhibitory concentration)
Description: Compounds of formula I were tested at concentrations of 100 μg/ml, 10 μg/ml, 1 μg/ml and 0.1 μg/ml in small glass containers. If the compound was not soluble in water, a volatile organic medium, e.g. acetone, chloroform, ethanol or methanol was used. An amount of material appropriate for each final concentration was measured and placed in duplicate test containers and if an organic solvent was used it was allowed to evaporate completely. Nippostrongylus brasiliensis eggs were recovered by saturated saline centrifugal flotation from the faeces of rats heavily infected with third stage larvae six days previously. They were washed several times in water and suspended in water in a suitable concentration. From 25-50 eggs were placed in each container and the final volume was made up by the addition of a very dilute aqueous suspension of mouse faeces which served as the growth medium. The minimum inhibitory concentrations of each compound (M.I.C.), shown in the following Table V was the minimum concentration in μg/ml total liquid volume at which it inhibited or delayed hatching of eggs, or at which it killed, retarded growth or reduced activity of larvae during the 4 days after beginning the test.

[4] = ip, Test 2, 250 mg/kg intraperitoneal
[5] = sc, Test 2, 250 mg/kg subcutaneous

CCOC(=O)NC(=S)Nc1ccccc1NC(=O)C(C)N(C)C (racemic) [1-ethoxycarbonyl-3[2-(1-dimethylaminoethylcarbonylamino)phenyl]thiourea]
inhibition in vivo at 1000 mg/kg [1]: 97% | inhibition in vivo at 1000 mg/kg [2]: 100%

CCOCCOC(=O)NC(=S)Nc1ccccc1N [1-(2-ethoxyethoxycarbonyl)-3-(2-aminophenyl)thiourea]
inhibition in vivo at 1000 mg/kg [2]: 90% | worm damage [2]: worm damage

CCCCOC(=O)NC(=S)Nc1ccccc1N [1-butoxycarbonyl-3-(2-aminophenyl)thiourea]
MIC [3]: 1 µg/mL (≈ 3.74 µM)

CCOC(=O)NC(=S)Nc1ccc(NC(=O)OC(C)C)cc1NC(C)=O [1-ethoxycarbonyl-3-(2-acetamido-4-isopropoxycarbonylaminophenyl)thiourea]
inhibition in vivo at 1000 mg/kg [2]: 62%

CCOC(=O)NC(=S)Nc1ccc(Cl)cc1N [1-ethoxycarbonyl-3-(2-amino-4-chlorophenyl)thiourea]
MIC [3]: 10 µg/mL (≈ 36.5 µM)

CCCCc1ccc(NC(=S)NC(=O)OCC)c(N)c1 [1-ethoxycarbonyl-3-(2-amino-4-n-butylphenyl)-thiourea]
MIC [3]: 1 µg/mL (≈ 3.39 µM)

CCCCN(CCCC)CC(=O)Nc1ccccc1NC(=S)NC(=O)OCC [1-ethoxycarbonyl-3-(2-di-n-butylaminoacetamidophenyl)thiourea hydrochloride]
inhibition in vivo at 1000 mg/kg [2]: 97% | MIC [3]: 0.1 µg/mL

CCOC(=O)NC(=S)Nc1cc(NC(=O)OC(C)C)ccc1NC(=O)CN(C)C [1-ethoxycarbonyl-3-(2-dimethylaminoacetamido-5-isopropoxycarbonylaminophenyl)-thiourea hydrochloride]
inhibition in vivo at 1000 mg/kg [2]: 100% | inhibition in vivo at 250 mg/kg [2, 4]: 50% | inhibition in vivo at 250 mg/kg [2, 5]: 60% | MIC [3]: 100 µg/mL

CCOC(=O)NC(=S)Nc1cc(NC(=O)OC)ccc1NC(=O)CN(C)C [1-ethoxycarbonyl-3-(2-dimethylaminoacetamido-5-methoxycarbonylaminophenyl)thiourea hydrochloride]
inhibition in vivo at 1000 mg/kg [2]: 100%

CCOC(=O)NC(=S)Nc1ccccc1NC(=O)CN1CCOCC1 [1-ethoxycarbonyl-3-(2-morpholinoacetamidophenyl)thiourea hydrochloride]
inhibition in vivo at 1000 mg/kg [2]: 99% | MIC [3]: 0.1 µg/mL

CCOC(=O)NC(=S)Nc1ccccc1NC(=O)C[N+](C)(C)C [1-ethoxycarbonyl-3-(2-trimethylammoniumacetamidophenyl)thiourea iodide]
inhibition in vivo at 1000 mg/kg [2]: 60% | worm damage [2]: worm damage | MIC [3]: 0.1 µg/mL

CCOC(=O)NC(=S)Nc1ccccc1NC(=O)CN1C[C@@H](C)O[C@@H](C)C1 [1-ethoxycarbonyl-3-[2-(2,6-cis-dimethylmorpholinoacetamido)phenyl]thioureahydrochloride]
inhibition in vivo at 250 mg/kg [2, 4]: 93% | inhibition in vivo at 250 mg/kg [2, 5]: 95% | MIC [3]: 0.1 µg/mL

CCOC(=O)Nc1ccc(NC(=S)NC(=O)OC)c(N)c1 [1-methoxycarbonyl-3-(2-amino-4-ethoxycarbonylaminophenyl)thiourea]
inhibition in vivo at 1000 mg/kg [2]: 99% | MIC [3]: 10 µg/mL (≈ 32 µM)

COC(=O)NC(=S)Nc1ccc(C)cc1N [1-methoxycarbonyl-3-(2-amino-4-methylphenyl)thiourea]
inhibition in vivo at 1000 mg/kg [2]: 97% | worm damage [2]: worm damage | MIC [3]: 100 µg/mL (≈ 418 µM)

COC(=O)NC(=S)Nc1ccccc1N [1-methoxycarbonyl-3-(2-aminophenyl)thiourea hydrochloride]
inhibition in vivo at 1000 mg/kg [1]: 100% | inhibition in vivo at 1000 mg/kg [2]: 100%

COC(=O)NC(=S)Nc1ccc(C(C)=O)cc1N [1-methoxycarbonyl-3-(4-acetyl-2-aminophenyl)thiourea]
inhibition in vivo at 1000 mg/kg [2]: 73% | worm damage [2]: worm damage

COC(=O)NC(=S)Nc1ccccc1NC(=O)C=CC(=O)O [1-methoxycarbonyl-3-[2-(3-carboxyacrylamido)phenyl]thiourea]
inhibition in vivo at 1000 mg/kg [2]: 99% | MIC [3]: 1 µg/mL (≈ 3.09 µM)

From patent US4005217A, “Treatment of helminth infections with substituted phenyl-thiourea derivatives” (May & Baker Limited, priority 1970, dated 1977)
